Each structure is given as a SMILES string.

Common to all, as to format: cell-based
Assay [1] concerns MCF-7 breast cancer cells. The experiment in a line: cells. As to conditions: Homo sapiens, MCF7; 48 h treatment; read-out: MTT IC50 MCF-7. As for the experimental part:
(§1) The cell lines were obtained from American Type Culture Collection (ATCC, Manassas, VA, USA) and were cultured at 37 °C in the presence of 5% CO2 in the atmosphere. […] The cell’s morphology was examined under a Nikon Eclipse Ti inverted phase contrast microscope (Nikon, Tokyo, Japan). The authenticity of tested cell lines was verified by short tandem repeat (STR) genotyping in the Department of Forensic Medicine (Medical University of Lublin, Lublin, Poland).
(§2) Cell viability based on metabolic activity was evaluated with the MTT colorimetric test based on the ability of viable cells to cause the transformation of tetrazolium salts MTT (3-[4,5-dimethylthiazol-2-yl]-2,5)diphenyltetrazolium bromide) into purple formazan, by cellular dehydrogenases. The cells were seeded into 96-well plates at a concentration of 2 × 10^5 cells/mL. […] Doxorubicin was used for comparison as the standard chemotherapeutic agent used in breast cancer treatment. After 48 h of incubation cell cultures were supplemented with 20 µL of 5 mg/mL MTT (Thermofisher, Waltham, MA, USA) stock in PBS (Corning, NY, USA), and the incubation was continued for 4 h at 37 °C. Next, the medium with MTT was removed, and obtained crystals were dissolved in 200 µL of DMSO (dimethyl sulfoxide, Avantor, Gliwice, Poland). The solution absorbency was measured at 570 nm, using a PowerWave™ xs microplate spectrophotometer (BioTek Instruments, Winooski, VT, USA). The experiment was performed three times with three replicates for each concentration of tested compounds.

In assay [2] the test system is MDA-MB-231 breast cancer cells. The experiment in a line: cells. As to conditions: Homo sapiens, MDA-MB-231; 48 h treatment; read-out: MTT IC50 MDA-MB-231. As for the experimental part:
as §1, §2

The test system of assay [3] is BJ normal skin fibroblast. The experiment in a line: MTT cytotoxicity test, BJ normal fibroblasts. As to conditions: Homo sapiens, 48 h treatment. The method, then: The studies were conducted on two breast cancer cell lines—MCF-7 (ER+PR+/HER2-negative) and MDA-MB-231 (ER/PR/HER2-negative) and human normal fibroblast cell line BJ. The cell lines were obtained from American Type Culture Collection (ATCC, Manassas, VA, USA) and were cultured at 37 °C in the presence of 5% CO2 in the atmosphere. The culture media (Eagle’s Minimum Essential Medium for MCF-7 and BJ, Leibovitz’s L-15 Medium for MDA-MB-231, Corning, NY, USA), was supplemented with 10% fetal bovine serum. The cell’s morphology was examined under a Nikon Eclipse Ti inverted phase contrast microscope (Nikon, Tokyo, Japan). The authenticity of tested cell lines was verified by short tandem repeat (STR) genotyping in the Department of Forensic Medicine (Medical University of Lublin, Lublin, Poland).
Cell viability based on metabolic activity was evaluated with the MTT colorimetric test based on the ability of viable cells to cause the transformation of tetrazolium salts MTT (3-[4,5-dimethylthiazol-2-yl]-2,5)diphenyltetrazolium bromide) into purple formazan, by cellular dehydrogenases. The cells were seeded into 96-well plates at a concentration of 2 × 10^5 cells/mL. Once 70–80% confluency was reached, tested compounds were added: ADS10310 and ADS1017 in concentrations ranging from 1 to 250 µM or DMSO as the vehicle in control cultures for the next 48 h (max. DMSO concentration <0.5%). Doxorubicin was used for comparison as the standard chemotherapeutic agent used in breast cancer treatment. After 48 h of incubation cell cultures were supplemented with 20 µL of 5 mg/mL MTT (Thermofisher, Waltham, MA, USA) stock in PBS (Corning, NY, USA), and the incubation was continued for 4 h at 37 °C. […] The solution absorbency was measured at 570 nm, using a PowerWave™ xs microplate spectrophotometer (BioTek Instruments, Winooski, VT, USA). […] IC50 values were determined using the AAT Bioquest IC50 calculator (AAT Bioquest, Inc. Quest Graph™ EC50 Calculator. https://www.aatbio.com/tools/ec50-calculator) (accessed on 6 September 2022).

Take `COc1cccc2c1C(=O)c1c(O)c3c(c(O)c1C2=O)C[C@@](O)(C(=O)CO)C[C@@H]3O[C@H]1C[C@H](N)[C@H](O)[C@H](C)O1` [Doxorubicin, reference compound]: the IC50 in assay [1] is 2120 nM; in assay [2] it was 1850 nM; in assay [3], 4870 nM.

Source of the values: paper PMC10223552 (Pharmaceuticals, 2023).
